From patent publication US6395787B1, “Ocular hypotensive lipids” (Allergan Sales, Inc., priority 2000, dated 2002)

Tests used:
human FP receptor [1] = target: T1, human FP receptor (Homo sapiens, UniProt P43088); assay: Radioligand binding competition vs 3H-17-phenyl PGF2α, recombinant human FP receptor; design: expressed in transfected cells; details: for % specific binding mean χ ± SEM: vs 5nM 3H-17-phenyl PGF2α, n = 3
Method: Plasma membrane preparations of HEK 293 cells stably transfected with the human or feline FP receptor were obtained as follows. Cells washed with TME buffer were scraped from the bottom of the flasks and homogenized for 30 sec using a Brinkman PT 10/35 polytron. TME buffer was added as necessary to achieve a 40 ml volume in the centrifuge tubes. TME is comprised of 100 mM TRIS base, 20 mM Mg Cl2, 2 m EDTA; physiological pH is achieved by adding 10 N HCl. The cell homogenate was centrifuged at 19,000 rpm for 20 min at 4-6° C. using a Beckman Ti-60 rotor. The pellet was then resuspended in TME buffer to provide a final protein concentration of 1 mg/ml, as determined by Biorad assay. Radioligand binding assays were performed in a 200 μl volume.
Incubations were for 60 min at 25° C. and were terminated by the addition of 4 ml of ice-cold 50 mM TRIS-HCl followed by rapid filtration through Whatman GF/B filters and three additional 4 ml washes in a cell harvester (Brandel).

[2] = system: isolated chick ileum (EP3 receptor preparation); assay: Isolated chick ileum contraction; details: compared to prostaglandin E2, 10^−6 M
Method: Smooth muscle tension of isolated tissues was measured isometrically with force displacement transducers (Grass FT-03) and recorded on Grass Polygraphs (Models 7G and 79E). The organ baths contained Krebs solution maintained at 37° C. and gassed with 95% 02/5% CO2 to give a pH of 7.4. The Krebs solution had the following composition (mM): NaCl, 118.0; KCl, 4.7; KH2PO4, 1.2; CaCl2, 1.9; MgSO4, 1.18; NaHCO3, 25.0; glucose, 11.7; indomethacin, 0.001.
The chick ileum is an EP3 receptor preparation. Portions of the chick ileum of 1.5 cm length were suspended under 1 g of tension. After a one hour equilibration period, a standard dose-response curve for PGE2 was obtained in a non-cumulative fashion with 30 minute wash-out periods between individual doses. Subsequently, test compound was added non-cumulatively. A maximal dose of PGE2 (10^−6 M) was finally given to serve as a second reference standard. Contractile activity at each concentration was then calculated as a % of the maximal PGE2 response reached at a 10^−6 M concentration.

human FP receptor [3] = target: T1, human FP receptor; assay: Total inositol phosphate accumulation, HEK-293 cells with recombinant human FP receptor; type: cell-based; design: expressed in transfected cells; details: for % maximal total inositol phosphate accumulation mean χ ± SEM: reference 17-phenyl PGF2α 10^−6 M
Method: HEK-293 cells were grown in DMEM with 10% fetal bovine serum (FBS), 250 μg ml^−1 G418 (Life Technologies) and 200 μg ml^−1 gentamicin or penicillin/streptomycin. […] For transfection, the cells were grown to 50-60% confluency on 10 cm plates. The plasmid pCEP4 incorporating cDNA inserts for the human FP receptor (20 μg) was added to 500 μl of 250 mM CaCl2. HEPES buffered saline×2 (2×HBSS, 280 mM NaCl, 20 mM HEPES acid, 1.5 mM Na2 HPO4, pH 7.05-7.12) was then added dropwise to a […], with continuous vortexing at room temperature. After 30 min, 9 ml DMEM were added to the mixture. The DNA/DMEM/calcium phosphate mixture was then added to the cells, which had been previously rinsed with 10 ml phosphate buffered saline (PBS). The cells were then incubated for 5 h. at 37° C. in humidified 95% air/5% CO2. The calcium phosphate solution was then removed and the cells were treated with 10% glycerol in DMEM for 2 min. The glycerol solution was then replaced by DMEM with 10% fetal bovine serum (FBS). The cells were incubated overnight and the medium was replaced by DMEM/10% FBS containing 250 μg ml^−1 G418 and penicillin/streptomycin. The following day hygromycin B was added to a final concentration of 200 μg ml^−1.
Receptor-mediated phosphoinositide (PI) hydrolysis was determined by measuring the accumulation of total inositol phosphates (IP) in cells preincubated with ^3H-myoinositol. Stable cell lines of HEK 293 cells expressing human or cat FP receptors were plated in 10 cm dishes (10^6 cells per dish in DMEM with 10% FBS). The following day, the cells were incubated with 18 μCi myo-[2 ^3H] inositol (Amersham; […]) in 6 ml of DMEM with 10% FBS for 24 hours at 37° C. The cells were then rinsed twice with phosphate buffered saline (PBS), incubated for 5 min with 1 ml of trypsin-EDTA, and suspended in 10 ml DMEM containing 25 mM HEPES buffer. Cells were pelleted at 1000 rpm and resuspended in DMEM/25 mM HEPES containing 10 mM LiCl for 10 minutes. Aliquots of 200 μl cell suspension were incubated with 50 μl drug for 30 minutes at 37° C. (duplicate determination), and agonist stimulation was terminated with a 750 μl mixture of chloroform:methanol:4N HCl (100:200:2), followed by addition of 250 μl of chloroform and 0.5 N HCl for extraction of inositol phosphates. A 750 μl volume of the aqueous layer was loaded on columns packed with 0.5 ml of Dowex AG 1-X8 anion-exchange resin (formate form, 100-200 mesh; BioRad) to separate radiolabeled components. The elution procedure consisted of three 3 ml washes with 5 mM inositol, then two elutions with 750 μl of 1.3 M ammonium formate with 0.1 M formic acid. The eluate was mixed with 10 ml Aquasol scintillation fluid (Packard Instrument Co.) and total [^3H] inositol phosphates was determined by a liquid scintillation counter.

T1 sequence (P43088 whole entry): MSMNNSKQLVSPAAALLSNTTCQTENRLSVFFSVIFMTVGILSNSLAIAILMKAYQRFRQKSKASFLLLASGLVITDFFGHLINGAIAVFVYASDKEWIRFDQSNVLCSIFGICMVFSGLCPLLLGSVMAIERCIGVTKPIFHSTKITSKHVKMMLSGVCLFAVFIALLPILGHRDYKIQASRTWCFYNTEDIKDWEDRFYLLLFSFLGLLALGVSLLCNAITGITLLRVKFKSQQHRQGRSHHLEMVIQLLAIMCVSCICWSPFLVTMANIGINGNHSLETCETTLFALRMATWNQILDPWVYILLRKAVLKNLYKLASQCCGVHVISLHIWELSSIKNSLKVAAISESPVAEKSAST

- % specific binding mean χ ± SEM (human FP receptor [1]; 10^−5 M): 19.7 ± 1.2%
- % specific binding mean χ ± SEM (human FP receptor [1]; 10^−6 M): 63.7 ± 2.7%
- % specific binding mean χ ± SEM (human FP receptor [1]; 10^−7 M): 95.9 ± 1.5%
- % specific binding mean χ ± SEM (human FP receptor [1]; 10^−8 M): 103.3 ± 0.3%
- % specific binding mean χ ± SEM (human FP receptor [1]; 10^−9 M): 94.7 ± 1.4%
- IC50 (human FP receptor [1]; read-out: I.C.50, radioligand binding): 2020 nM
- % maximal total inositol phosphate accumulation mean χ ± SEM (human FP receptor [3]; 10^−5 M): 85.0 ± 1.9%
- % maximal total inositol phosphate accumulation mean χ ± SEM (human FP receptor [3]; 10^−6 M): 48.4 ± 3.3%
- % maximal total inositol phosphate accumulation mean χ ± SEM (human FP receptor [3]; 10^−7 M): 10.0 ± 1.6%
- % maximal total inositol phosphate accumulation mean χ ± SEM (human FP receptor [3]; 10^−8 M): 0.3 ± 0.6%
- EC50 (human FP receptor [3]; HEK-293 cells, recombinant human FP receptor, read-out: E.C.50, total inositol phosphate accumulation): 1000 nM
SMILES: CCCCC[C@H](O)/C=C/[C@@H]1[C@@H](C/C=C\CCCC(=O)NCCO)[C@@H](O)C[C@H]1O [PGF2α 1-ethanolamide, (5Z,8α,9α,11α,13E,15S)-9,11,15-trihydroxy-N-(2-hydroxyethyL)prosta-5,13-dien-1-amide]
- effect on the isolated chick ileum [2]: weak partial agonist
